The source made the active and inactive calls. No cut-off for these calls is given here.
Legend:
UACC-903 [1] = experiment: Antiproliferative activity against human UACC-903 cells assessed as reduction in cell viability at 0.5 to 200 uM measured after 72 hrs by MTS assay; format: functional, cell-based; settings: dose 0.5-200 µM
[2] = Cytotoxicity against human FF2441 cells assessed as reduction in cell viability at 0.2 to 100 uM measured after 72 hrs by MTS assay; format: cell-based; settings: ff2441, 72 h, dose 0.2-100 µM
UACC-903 [3] = experiment: Antiproliferative activity against human UACC-903 cells assessed as reduction in cell viability measured after 72 hrs by MTS assay; format: functional, cell-based; settings: for IC50: UACC-903, 72 h
UACC-903 [4] = experiment: Antiproliferative activity against human UACC-903 cells assessed as reduction in cell viability at 0.5 to 200 uM by MTS assay; format: functional, cell-based; settings: dose 0.5-200 µM, TDE = time-dependent effect
Ehrlich [5] = experiment: Antitumor activity against mouse EAT cells implanted in ip dosed Swiss albino mouse assessed as induction of apoptosis causing membrane blebbing administered on day 7, 9 and 11 post implantation and measured on day 12 by Giemsa staining based light microscopy; format: functional, organism-based; settings: dose 100.0 mg/kg, time 3.0 day
Chorioallantoic membrane [6] = experiment: Antiangiogenic activity in chicken fertilized egg chorioallantoic membrane assessed as inhibition of VEGF165-induced vascularization incubated for 2 days by digital camera photography analysis; format: functional; settings: Gallus gallus, Embryo, time 2.0 day
Ehrlich [7] = experiment: Antitumor activity against mouse EAT cells implanted in ip dosed Swiss albino mouse assessed as decrease in ascitic cell viability administered on day 7, 9 and 11 post implantation and measured on day 12 by tryphan blue assay; format: functional, organism-based; settings: dose 100.0 mg/kg, time 3.0 day
Ehrlich [8] = experiment: Antitumor activity against mouse EAT cells implanted in Swiss albino mouse assessed as tumor suppression at 100 mg/kg, ip administered on day 7, 9 and 11 post implantation and measured on day 12 relative to control; format: functional; settings: 72 h, time 3 day
Chorioallantoic membrane [9] = experiment: Antiangiogenic activity in chicken fertilized egg chorioallantoic membrane assessed as inhibition of expression of VEGF-like factors; format: functional; settings: Gallus gallus, Embryo
Chorioallantoic membrane [10] = experiment: Antiangiogenic activity in chicken fertilized egg chorioallantoic membrane assessed as inhibition of secretion of VEGF-like factors; format: functional; settings: Gallus gallus, Embryo
Ehrlich [11] = experiment: Antitumor activity against mouse EAT cells implanted in ip dosed Swiss albino mouse assessed as decrease in ascitic fluid administered on day 7, 9 and 11 post implantation and measured on day 12; format: functional, organism-based; settings: dose 100.0 mg/kg, time 3.0 day
Ehrlich [12] = experiment: Antitumor activity against mouse EAT cells implanted in ip dosed Swiss albino mouse assessed as increase in mouse survival at 100 mg/kg, ip administered on day 7, 9 and 11 post implantation and measured after 35 days relative to control; format: functional; settings: time 35 day
Ehrlich [13] = experiment: Antitumor activity against mouse EAT cells implanted in ip dosed Swiss albino mouse assessed as induction of apoptosis causing plasma membrane degradation administered on day 7, 9 and 11 post implantation and measured on day 12 by Giemsa staining based light microscopy; format: functional, organism-based; settings: dose 100.0 mg/kg, time 3.0 day
Ehrlich [14] = experiment: Antitumor activity against mouse EAT cells implanted in ip dosed Swiss albino mouse assessed as induction of apoptosis causing shrinkage of cells administered on day 7, 9 and 11 post implantation and measured on day 12 by Giemsa staining based light microscopy; format: functional, organism-based; settings: dose 100.0 mg/kg, time 3.0 day
Ehrlich [15] = experiment: Antitumor activity against mouse EAT cells implanted in ip dosed Swiss albino mouse assessed as suppression of peritoneal angiogenesis at […] administered on day 7, 9 and 11 post implantation and measured on day 12 by Hematoxylin and eosin staining based assay; format: functional, organism-based; settings: time 3.0 day
[16] = Toxicity in Swiss albino mouse implanted with mouse EAT cells assessed as decrease in body weight at 100 mg/kg, ip administered on day 7, 9 and 11 post implantation and measured on day 12; format: organism-based; settings: in vivo, 72 h, time 3 day
Ehrlich [17] = experiment: Antitumor activity against mouse EAT cells implanted in ip dosed Swiss albino mouse assessed as tumor regression administered on day 7, 9 and 11 post implantation and measured on day 12; format: functional, organism-based; settings: time 3.0 day
Ehrlich [18] = experiment: Antitumor activity against mouse EAT cells implanted in ip dosed Swiss albino mouse assessed as induction of apoptosis causing apoptotic body formation administered on day 7, 9 and 11 post implantation and measured on day 12 by Giemsa staining based light microscopy; format: functional, organism-based; settings: dose 100.0 mg/kg, time 3.0 day

Row | SMILES | Activity (UACC-903 [1]) | Activity [2] | Activity (UACC-903 [3]) | IC50 (UACC-903 [3]) | Activity (UACC-903 [4]) | also measured
1 | COc1cccc(C2=NOC(COc3ccc4c(C)cc(=O)oc4c3)C2)c1 (configuration not stated) | inactive | Non-Toxic |  |  |  | 
2 | Cc1cc(=O)oc2cc(OCC3CC(c4ccc(F)cc4)=NO3)ccc12 (configuration not stated) | inactive | Non-Toxic |  |  |  | 
3 | COc1ccc(C2=NOC(COc3ccc4c(C)cc(=O)oc4c3)C2)cc1 (configuration not stated) |  |  | Dose-dependent effect | 8.8 µM | Tde | 
4 | Cc1cc(=O)oc2cc(OCC3CC(c4ccc5ccccc5c4)=NO3)ccc12 (configuration not stated) | inactive | Non-Toxic |  |  |  | 
5 | Cc1cc(=O)oc2cc(OCC3CC(c4ccc(Cl)cc4)=NO3)ccc12 (configuration not stated) | inactive | Non-Toxic |  |  |  | 
6 | Cc1cc(=O)oc2cc(OCC3CC(c4ccccc4Cl)=NO3)ccc12 (configuration not stated) |  |  | Dose-dependent effect | 9.2 µM | Tde | 
7 | COc1ccc(C2=NOC(COc3ccc4c(C)cc(=O)oc4c3)C2)cc1OC (configuration not stated) |  |  | Dose-dependent effect | 10.5 µM | Tde | Activity (Ehrlich [5]): Active; Activity (Chorioallantoic membrane [6]): Active; Activity (Ehrlich [7]): Active; inhibition in vivo at 100 mg/kg (Ehrlich [8]): 85%; Activity (Chorioallantoic membrane [9]): Active; Activity (Chorioallantoic membrane [10]): Active; Activity (Ehrlich [11]): Active; fold change (FC) (Ehrlich [12]): 2; Activity (Ehrlich [13]): Active; Activity (Ehrlich [14]): Active; Activity (Ehrlich [15]): Active; Activity [16]: Toxic; Activity (Ehrlich [17]): Dose-dependent effect; Activity (Ehrlich [18]): Active
8 | Cc1cc(=O)oc2cc(OCC3CC(c4ccc(C(F)(F)F)cc4)=NO3)ccc12 (configuration not stated) | inactive | Non-Toxic |  |  |  | 
9 | Cc1cc(=O)oc2cc(OCC3CC(c4ccc(Br)cc4)=NO3)ccc12 (configuration not stated) | inactive | Non-Toxic |  |  |  | 
10 | Cc1cc(=O)oc2cc(OCC3CC(c4c(F)cccc4Cl)=NO3)ccc12 (configuration not stated) |  |  | Dose-dependent effect | 4.5 µM | Tde | 
11 | Cc1cc(=O)oc2cc(OCC3CC(c4cccc(F)c4)=NO3)ccc12 (configuration not stated) | inactive | Non-Toxic |  |  |  | 
12 | COc1cc(C2=NOC(COc3ccc4c(C)cc(=O)oc4c3)C2)cc(OC)c1OC (configuration not stated) | inactive | Non-Toxic |  |  |  | 
